From patent US9045423B2, “Prophylactic and/or therapeutic agent for anemia comprising tetrahydroquinoline compound as active ingredient” (KOWA COMPANY, LTD., priority 2009, dated 2015) come the findings set out here.

The test system of assay [1] is K562 cells, a human proerythroblast cell line. Kind of assay: Hemoglobin production in K562 cells (fluorescence of the porphyrin ring). The assay is classed as cell-based. The note with it: Homo sapiens, K562, 144 h; 6 μM test compound, 3 + 3 days incubation; non-stimulated state without compound = 100; read-out: amount of hemoglobin, % of control (6 μM). How it is done:
K562 cells (obtained from ATCC), which is a human proerythroblast cell line, were inoculated at a concentration of 1×10^5 cells/1 mL in each well of a 24-well plate, using complete medium (RPMI-1640 medium containing 10% bovine fetal serum), and 1 μL of a test compound at a 1000-fold concentration was added to each well. Subsequently, the cells were incubated for 3 days in a CO2 incubator (37° C., 5% CO2). The medium was exchanged, and the cells were further incubated for 3 days. The cells were collected and counted. Subsequently, the amount of hemoglobin produced in the cells was determined by adjusting the number of cells to 3×10^5 cells, and measuring the fluorescence of the porphyrin ring. That is, the cells collected by centrifugation were suspended in 500 μL of 2 M oxalic acid, and were heated to boil for 30 minutes. The cells were cooled, and then the fluorescence intensity was measured by using a fluorescence microplate reader (Spectra MAX GeminiEM; Molecular Devices Corp.) ([…]). The amount of hemoglobin in a non-stimulated state where no compound was added was designated as 100-, and the amount of hemoglobin (% of control) produced as induced by each of the compounds was determined.

For assay [2], the system named is HepG2 cells derived from human liver cancer. Kind of assay: EPO production in HepG2 cells (EPO ELISA of culture supernatant). In kind it is cell-based. The note with it: Homo sapiens; for activity at 3 µM: HepG2, 3 μM test compound, 48 hrs, 4% oxygen, non-stimulated state without compound = 100%, read-out: amount of EPO production, % of control (3 μM); for activity at 10 µM: HepG2, 48 h, final concentration 10 μM, non-stimulated state = 100%, read-out: enhancement of EPO production. The method, then: HepG2 cells derived from human liver cancer were inoculated in an amount of 5×10^4 cells per well on a 48-well plate, using minimum essential medium (MEM, Sigma-Aldrich Company) containing 10% bovine fetal serum. On the next day, the medium was exchanged with Dulbecco's modified eagle medium (DMEM (Sigma-Aldrich Company)) containing 10% bovine fetal serum without Phenol Red. Then, a test compound dissolved in DMSO was added thereto to obtain a final concentration of 3 μM or 10 μM, and the amount of medium was adjusted to 400 μL per well. The cells were incubated for 48 hrs in a CO2 incubator in which the oxygen concentration was adjusted to 4%, and then the culture supernatant was collected. The EPO concentration in the culture supernatant was immediately measured using an EPO ELISA kit (Roche Diagnostics GmbH). The method was carried out according to the operation manual.
The amount of EPO production in a non-stimulated state where no compounds were added, was designated as 100%, and the amount of EPO production (% of control) induced by each of the compounds was determined.
Background: An ELISA detects its analyte on a solid surface through an enzyme-linked reagent.

As to `CC(=O)N1c2ccc(C(=O)NN)cc2C(Nc2ccc(N3CCOCC3)cc2)CC1C` (stereo not drawn) [Compound 133, 1-Acetyl-4-[(4-morpholinophenyl)-amino]-2-methyl-1,2,3,4-tetrahydroquinoline-6-carbohydrazide], the activity at 6 µM in assay [1] was found to be 136%. Also, the activity at 3 µM in assay [2] amounted to 113%.
As to `CC(=O)N1c2ccc(-c3n[nH]c(=O)o3)cc2C(Nc2ccc(N3CCOCC3)cc2)CC1C` (stereo not drawn) [Compound 134, 1-Acetyl-4-[(4-morpholinophenyl)-amino]-2-methyl-6-[1,3,4-oxadiazol-2(3H)-on-5-yl]-1,2,3,4-tetrahydroquinoline], the activity at 6 µM in assay [1] worked out at 298%. In addition, in assay [2], the activity at 3 µM came out at 157%.
As for `CONC(=O)c1ccc2c(c1)C(Nc1ccc(N3CCOCC3)cc1)CC(C)N2C(C)=O` (stereo not drawn) [Compound 135, 1-Acetyl-4-[(4-morpholinophenyl)-amino]-N-methoxy-2-methyl-1,2,3,4-tetrahydroquinoline-6-carboxamide], the activity at 6 µM in assay [1] was 178%. Also, the activity at 3 µM in assay [2] came out at 124%.
For `CC(=O)N1c2ccccc2C(Nc2ccc3ocnc3c2)CC1C` (stereo not drawn) [Compound 136, 1-Acetyl-4-[(benzoxazol-5-yl)-amino]-2-methyl-1,2,3,4-tetrahydroquinoline], in assay [1], the activity at 6 µM turned out to be 136%. Besides, in assay [2], the activity at 3 µM turned out to be 141%.
For `CC(=O)N1c2ccc(F)cc2C(Nc2ccc(C(=O)O)cc2)CC1C` (stereo not drawn) [Compound 137, 1-Acetyl-6-fluoro-4-[(4-carboxy-phenyl)amino]-2-methyl-1,2,3,4-tetrahydroquinoline], in assay [1], the activity at 6 µM worked out at 190%. The activity at 3 µM in assay [2] came out at 110%.
With `CNC(=O)c1ccc2c(c1)C(Oc1ccc(N3CCOCC3)cc1)CC(C)N2C(C)=O` (stereo not drawn) [Compound 140, 1-Acetyl-N,2-dimethyl-4-(4-morpholinophenoxy)-1,2,3,4-tetrahydroquinoline-6-carboxamide], the activity at 6 µM in assay [1] stood at 231%. Further, the activity at 3 µM in assay [2] stood at 124%.
Regarding `CC(=O)N1c2ccc(C(N)=O)cc2C(Oc2ccc(Cl)cc2)CC1C` (stereo not drawn) [Compound 142, 1-Acetyl-4-(4-chlorophenoxy)-2-methyl-1,2,3,4-tetrahydro-quinoline-6-carboxamide], the activity at 6 µM in assay [1] worked out at 478%. For the same compound, in assay [2], the activity at 3 µM worked out at 129%.
Taken in the same sequence, the figures for `CC(=O)N1c2ccccc2C(Oc2ccc(NS(C)(=O)=O)cc2)CC1C` (stereo not drawn) [Compound 143, N-{4-[(1-acetyl-2-methyl-1,2,3,4-tetrahydroquinolin-4-yl)oxy]-phenyl}methanesulfonamide] were 396% and 130%.
Turning to `CCOC(=O)c1ccc2c(c1)C(Nc1ccc(C3CCCCC3)cc1)CC(C)N2C(C)=O` (stereo not drawn) [Compound 144, Ethyl 1-Acetyl-4-[(4-cyclohexylphenyl)-amino]-2-methyl-1,2,3,4-tetrahydroquinoline-6-carboxylate], in assay [1], the activity at 6 µM is 338%. Moreover, in assay [2], the activity at 3 µM came to 180%.
As to `CC(=O)N1c2ccc(C(=O)O)cc2C(Nc2ccc(C3CCCCC3)cc2)CC1C` (stereo not drawn) [Compound 145, 1-Acetyl-4-[(4-cyclohexylphenyl)-amino]-2-methyl-1,2,3,4-tetrahydroquinoline-6-carboxylic acid], the activity at 6 µM in assay [1] turned out to be 414%. Also, the activity at 10 µM in assay [2] was found to be 157%.
On to `CNC(=O)c1ccc2c(c1)C(Nc1ccc(C3CCCCC3)cc1)CC(C)N2C(C)=O` (stereo not drawn) [Compound 146, 1-Acetyl-4-[(4-cyclohexylphenyl)-amino]-N,2-dimethyl-1,2,3,4-tetrahydroquinoline-6-carboxamide], for which the activity at 6 µM in assay [1] came to 208%. Moreover, the activity at 3 µM in assay [2] stood at 152%.
For `CC(=O)N1c2ccc(C(N)=O)cc2C(Nc2ccc(C3CCCCC3)cc2)CC1C` (stereo not drawn) [Compound 147, 1-Acetyl-4-[(4-cyclohexylphenyl)-amino]-2-methyl-1,2,3,4-tetrahydroquinoline-6-carboxamide], the activity at 6 µM in assay [1] was found to be 160%. Further, the activity at 10 µM in assay [2] amounted to 130%.
Consider `CC(=O)N1c2ccc(C(=O)NCCOCCOCCOCCC(=O)OC(C)(C)C)cc2C(Nc2ccc(N3CCOCC3)cc2)CC1C` (stereo not drawn) [Compound 149, Tert-butyl 12-{1-Acetyl-2-methyl-4-[(4-morpholinophenyl)-amino]-1,2,3,4-tetrahydroquinoline-6-carboxamido}-4,7,10-trioxadodecanoate], for which the activity at 6 µM in assay [1] is 367%. Also, the activity at 3 µM in assay [2] turned out to be 190%.
As for `COC(=O)CCCc1ccc(NC(=O)c2ccc3c(c2)C(Nc2ccc(N4CCOCC4)cc2)CC(C)N3C(C)=O)cc1` (stereo not drawn) [Compound 151, Methyl 4-(4-{1-Acetyl-2-methyl-4-[(4-morpholinophenyl)-amino]-1,2,3,4-tetrahydroquinoline-6-carboxamido}-phenyl)butanoate], the activity at 6 µM in assay [1] is 341%. Further, in assay [2], the activity at 3 µM came to 110%.
As to `CC(=O)N1c2ccc(N3CCOCC3)cc2C(Oc2ccc(Cl)cc2)CC1C` (stereo not drawn) [Compound 152, 1-Acetyl-4-(4-chloro-phenoxy)-2-methyl-6-morpholino-1,2,3,4-tetrahydroquinoline], the activity at 6 µM in assay [1] was found to be 337%. Also, in assay [2], the activity at 3 µM turned out to be 186%.
Turning to `CC(=O)N1c2ccc(C(=O)O)cc2C(Nc2ccc(C3CCOCC3)cc2)CC1C` (stereo not drawn) [Compound 154, 1-Acetyl-2-methyl-4-{[4-(tetrahydro-2H-pyran-4-yl)-phenyl]amino}-1,2,3,4-tetrahydroquinoline-6-carboxylic acid], in assay [1], the activity at 6 µM is 320%. For the same compound, the activity at 3 µM in assay [2] came to 116%.
`COC(=O)CCCCCNC(=O)c1ccc2c(c1)C(Nc1ccc(N3CCOCC3)cc1)CC(C)N2C(C)=O` (stereo not drawn) [Compound 157, Methyl 6-{1-Acetyl-2-methyl-4-[(4-morpholinophenyl)-amino]-1,2,3,4-tetrahydro-quinoline-6-carboxamido}-hexanoate]: the activity at 6 µM in assay [1] was found to be 396%. Further, the activity at 10 µM in assay [2] stood at 237%.
On to `COC(=O)CCCCCNC(=O)c1ccc2c(c1)C(Nc1ccc(Cl)cc1)CC(C)N2C(C)=O` (stereo not drawn) [Compound 158, Methyl 6-{1-acetyl-4-[(4-chloro-phenyl)amino]-2-methyl-1,2,3,4-tetrahydroquin-oline-6-carboxamido}-hexanoate], for which the activity at 6 µM in assay [1] worked out at 411%. The activity at 10 µM in assay [2] worked out at 248%.
In the case of `CC(=O)N1c2ccc(N3CCN(S(C)(=O)=O)CC3)cc2C(Nc2ccc(N3CCOCC3)cc2)CC1C` (stereo not drawn) [Compound 160, 1-Acetyl-2-methyl-6-[4-(methylsulfonyl)piperazin-1-yl]-4-[(4-morpholino-phenyl)amino]-1,2,3,4-tetrahydroquinoline], the activity at 6 µM in assay [1] is 259%. Besides, the activity at 3 µM in assay [2] amounted to 190%.
In the case of `CC(=O)N1c2ccc(N3CCOCC3)cc2C(Nc2ccc(N3CCOCC3)cc2)CC1C` (stereo not drawn) [Compound 161, 1-Acetyl-2-methyl-6-morpholino-4-[(4-morpholinophenyl)-amino]-1,2,3,4-tetrahydroquinoline], the activity at 6 µM in assay [1] was determined as 308%. Besides, in assay [2], the activity at 3 µM amounted to 351%.
Take `CCOC(=O)c1ccc2c(c1)C(Nc1ccc(-c3csc(C)n3)cc1)CC(C)N2C(C)=O` (stereo not drawn) [Compound 162, Ethyl 1-Acetyl-2-methyl-4-{[4-(2-methylthiazol-4-yl)-phenyl]amino}-1,2,3,4-tetrahydroquinoline-6-carboxylate]: the activity at 6 µM in assay [1] was determined as 316%. The activity at 3 µM in assay [2] amounted to 284%.
Take `CC(=O)N1c2ccc(C(=O)O)cc2C(Nc2ccc(-c3csc(C)n3)cc2)CC1C` (stereo not drawn) [Compound 163, 1-Acetyl-2-methyl-4-{[4-(2-methylthiazol-4-yl)-phenyl]amino}-1,2,3,4-tetrahydroquinoline-6-carboxylic acid]: the activity at 6 µM in assay [1] was 172%. Further, the activity at 3 µM in assay [2] is 128%.
On to `CC(=O)N1c2ccc(C(N)=O)cc2C(Nc2ccc(-c3csc(C)n3)cc2)CC1C` (stereo not drawn) [Compound 164, 1-Acetyl-2-methyl-4-{[4-(2-methylthiazol-4-yl)-phenyl]amino}-1,2,3,4-tetrahydroquinoline-6-carboxamide], for which the activity at 6 µM in assay [1] was 367%. For the same compound, the activity at 3 µM in assay [2] was 336%.
`CNC(=O)c1ccc2c(c1)C(Nc1ccc(-c3csc(C)n3)cc1)CC(C)N2C(C)=O` (stereo not drawn) [Compound 165, 1-Acetyl-N,2-dimethyl-4-{[4-(2-methylthiazol-4-yl)phenyl]amino}-1,2,3,4-tetrahydroquinoline-6-carboxamide]: the activity at 6 µM in assay [1] was determined as 304%. For the same compound, in assay [2], the activity at 10 µM worked out at 159%.
